Results published in patent US8440674B2, “Substituted pyrimidine compounds as RAF inhibitors and methods of use” (Amgen Inc., priority 2005, dated 2013).
Where two headings read alike, the source gives them in different places.

Key:
recombinant HuBraf V600E = recombinant HuBraf V600E (Homo sapiens, UniProt P15056, V600E); experiment: B-raf Homogenous Time Resolved Fluorescent (HTRF) kinase assay; assay type: biochemical; settings: substrate MEK1, 10 uM ATP; threshold lists; read-out: IC50 for the inhibition of B-raf as measured by the HTRF assay
Sequence of recombinant HuBraf V600E (P15056 whole entry V600E): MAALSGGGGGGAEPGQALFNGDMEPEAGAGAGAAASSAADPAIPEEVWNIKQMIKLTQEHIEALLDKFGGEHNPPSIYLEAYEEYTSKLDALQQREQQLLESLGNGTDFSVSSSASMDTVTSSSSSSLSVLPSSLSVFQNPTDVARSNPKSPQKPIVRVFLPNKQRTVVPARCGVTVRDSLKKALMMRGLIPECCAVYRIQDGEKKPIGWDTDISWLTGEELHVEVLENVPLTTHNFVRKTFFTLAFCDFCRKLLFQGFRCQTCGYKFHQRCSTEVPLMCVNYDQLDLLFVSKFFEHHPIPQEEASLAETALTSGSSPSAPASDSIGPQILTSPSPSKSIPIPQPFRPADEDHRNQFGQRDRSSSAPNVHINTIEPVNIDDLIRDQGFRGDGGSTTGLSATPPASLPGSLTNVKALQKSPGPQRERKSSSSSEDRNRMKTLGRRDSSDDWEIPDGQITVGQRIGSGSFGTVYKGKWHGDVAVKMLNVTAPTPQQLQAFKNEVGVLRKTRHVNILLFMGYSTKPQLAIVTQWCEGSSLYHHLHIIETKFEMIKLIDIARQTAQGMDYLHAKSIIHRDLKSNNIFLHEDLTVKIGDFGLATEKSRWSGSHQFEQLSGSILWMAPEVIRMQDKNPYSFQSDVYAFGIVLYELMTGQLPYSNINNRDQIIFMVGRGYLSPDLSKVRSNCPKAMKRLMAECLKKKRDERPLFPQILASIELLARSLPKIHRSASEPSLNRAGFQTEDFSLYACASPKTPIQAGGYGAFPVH
Experimental: A Homogeneous Time Resolved Fluorescence (HTRF) kinase assay was established to assay the ability of compounds to inhibit human mutant Braf kinase activity on the substrate MEK1. […] The final concentration of the kinase reaction buffer is 50 mM Tris-HCL pH 7.5, 10 mM MgCl2, 0.5% glucose, 0.5 mM DTT, 0.01% BSA.
The detection reaction proceeds for one hour and is read on a RubyStar (BMG Labtech) counter. IC50s for the test compounds are generated using Excel-XLfit software.

[1] = tested on: A375 cells, a human melanoma cell line having the V600E mutant Braf; experiment: B-Raf cell-based assay (ratio of phospho-ERK1/2 to total ERK1/2); settings: A-375, 1 h, P-ERK/total ERK, 60 minute incubation, read-out: IC50 for the inhibition of B-raf as measured by the cell-based assay
Experimental: A cell-based assay was optimized to assay the ability of compounds to inhibit Braf activity in a whole cell context. […] The cell-based assay quantifies the ratio of phospho-ERK1/2 to total ERK1/2 and can thereby assay the cellular inhibition of Braf kinase activity.
A375 cells are plated into 96 well plates and grown to confluence. The cells are then changed into starve media (DMEM/0.1% BSA) for 60 minutes. Compounds in DMSO dose curves are then diluted in starve media and added to cells. […] After a 60 minute incubation the cells are fixed for 20 minutes at room temperature in 4% formaldehyde with 0.1%Triton X-100, protease and phosphatase inhibitors in PBS. The cells are washed four times in PBS then blocked for 60 minutes using a one to one mix of Odyssey blocking buffer (Li-Cor Biosciences, Inc) and PBS. Primary antibodies (rabbit anti-phospho p42/p44 MAPK (P-ERK1/2) from Cell Signaling Technology and mouse anti-ERK2 from Santa Cruz Biotechnology) are diluted in blocking buffer, added to the cells and incubated overnight at 4° C. The cells are then washed four times in PBS/0.1% Tween-20. Secondary antibodies (anti-mouse IRDye 800CW from Rockland, Inc and anti-rabbit AlexaFlour680 from Molecular Probes) are diluted in blocking buffer/0.5% Tween and incubated on cells for 60 minutes. After 4 washes in PBS/0.1% Tween-20 the microplate is scanned on an Odyssey Infrared Imager (Li-Cor Bioscience) which can read the signal given by the two secondary antibodies on their respective channels. The ratio of P-ERK/total ERK is determined and IC50s generated using Excel-XLfit software.

Row | Structure (SMILES) | IC50 (recombinant HuBraf V600E) [nM] | IC50 ([1]; threshold list) [nM] | IC50 ([1]; threshold lists) [nM]
1 | CNc1cc(-c2cccnc2Nc2c(C)ccc3c(Nc4ccc5c(c4)NCCC5(C)C)nccc23)ncn1 [Example 72, N^1-(4,4-dimethyl-1,2,3,4-tetrahydro-7-quinolinyl)-6-methyl-N^5-(3-(6-(methylamino)-4-pyrimidinyl)-2-pyridinyl)-1,5-isoquinolinediamine] | ≤ 1000 | ≤ 500 | –
2 | CNc1ncc2cc(-c3c(C)sc4c(Nc5ccc(OC)c(C(F)(F)F)c5)nccc34)ccc2n1 [Example 392, 6-(7-(4-methoxy-3-(trifluoromethyl)phenylamino)-2-methylthieno[2,3-c]pyridin-3-yl)-N-methylquinazolin-2-amine] | ≤ 250 | ≤ 500 | –
3 | CNc1ncc2cc(-c3c(C)ccc4c(Nc5cccc(C(F)(F)F)c5)ncnc34)ccc2n1 [Example 51, N^2,7′-dimethyl-N^4′-(3-(trifluoromethyl)phenyl)-6,8′-biquinazoline-2,4′-diamine] | ≤ 250 | ≤ 500 | –
4 | CNc1ncc2cc(-c3c(C)ccc4c(Nc5ccc6c(c5)NCC6(C)C)ncnc34)ccc2n1 [Example 81, N^4′-(3,3-dimethyl-2,3-dihydro-1H-indol-6-yl)-N^2,7′-dimethyl-6,8′-biquinazoline-2,4′-diamine] | ≤ 250 | ≤ 500 | –
5 | CNc1ncc2cc(-c3c(C)ccc4c(Nc5cccc(C(C)(C)C)c5)nccc34)ccc2n1 [Example 28, 6-(1-((3-(1,1-dimethylethyl)phenyl)amino)-6-methyl-5-isoquinolinyl)-N-methyl-2-quinazolinamine] | ≤ 250 | ≤ 500 | –
6 | CNc1ncc2cc(-c3c(C)ccc4c(Nc5ccc(C)c(F)c5)nn(C)c34)ccc2n1 [Example 198] | ≤ 250 | ≤ 500 | ≤ 1000
7 | Cc1ccc2c(Nc3cccc(C(F)(F)F)c3)nccc2c1Nc1ncccc1-c1ccncn1 [Example 7, 6-methyl-N^5-(3-(4-pyrimidinyl)-2-pyridinyl)-N^1-(3-(trifluoromethyl)phenyl)-1,5-isoquinolinediamine] | ≤ 250 | ≤ 500 | –
8 | CNc1ncc2cc(-c3c(C)ccc4c(Nc5nnc(C6CC6)s5)nccc34)ccc2n1 [Example 36, 6-(1-((5-cyclopropyl-1,3,4-thiadiazol-2-yl)amino)-6-methyl-5-isoquinolinyl)-N-methyl-2-quinazolinamine] | ≤ 250 | ≤ 500 | –
9 | CNc1ncc2cc(-c3c(C)ccc4c(Nc5cccc(OC(C)C)c5)n[nH]c34)ccc2n1 [Example 78, N-methyl-6-(6-methyl-3-((3-((1-methylethyl)oxy)phenyl)amino)-1H-indazol-7-yl)-2-quinazolinamine] | ≤ 250 | ≤ 500 | –
10 | CNc1ncc2cc(-c3c(C)ccc4c(Nc5cncc(C(F)(F)F)c5)ncnc34)ccc2n1 [Example 56, N^2,7′-dimethyl-N^4′-(5-(trifluoromethyl)-3-pyridinyl)-6,8′-biquinazoline-2,4′-diamine] | ≤ 250 | ≤ 500 | –
11 | CNc1ncc2cc(-c3c(C)ccc4c(Nc5cc(C(C)(C)C)nn5C)ncnc34)ccc2n1 [Example 53, N^4′-(3-(1,1-dimethylethyl)-1-methyl-1H-pyrazol-5-yl)-N^2,7′-dimethyl-6,8′-biquinazoline-2,4′-diamine] | ≤ 250 | ≤ 500 | –
12 | CNc1ncc2cc(-c3c(C)ccc4c(Nc5cccc(Cl)c5)nccc34)ccc2n1 [Example 29, 6-(1-((3-chlorophenyl)amino)-6-methyl-5-isoquinolinyl)-N-methyl-2-quinazolinamine] | ≤ 250 | ≤ 500 | –
13 | CNc1ncc2cc(-c3c(C)ccc4c(Nc5ccc(F)c(OC(C)C)c5)nccc34)ccc2n1 [Example 40, 6-(1-((4-fluoro-3-((1-methylethyl)oxy)phenyl)amino)-6-methyl-5-isoquinolinyl)-N-methyl-2-quinazolinamine] | ≤ 250 | ≤ 500 | –
14 | CNc1ncc2cc(-c3c(C)ccc4c(Nc5ccc(-n6ccnc6)cc5)nn(C)c34)ccc2n1 [Example 204] | ≤ 250 | ≤ 500 | ≤ 1000
15 | Cc1ccc(C(F)(F)F)cc1Nc1nccc2c(Nc3ncccc3-c3ncnc4[nH]ccc34)c(C)ccc12 [Example 346] | ≤ 500 | – | ≤ 5000
16 | CNc1ncc2cc(-c3c(C)ccc4c(Nc5cccc(C(C)C)c5)nccc34)ccc2n1 [Example 26, N-methyl-6-(6-methyl-1-((3-(1-methylethyl)phenyl)amino)-5-isoquinolinyl)-2-quinazolinamine] | ≤ 250 | ≤ 500 | –
17 | CNc1ncc2cc(-c3c(C)ccc4c(Nc5ccc6c(c5)N(C(C)=O)CC6(C)C)nccc34)ccc2n1 [Example 33, 6-(1-((1-acetyl-3,3-dimethyl-2,3-dihydro-1H-indol-6-yl)amino)-6-methyl-5-isoquinolinyl)-N-methyl-2-quinazolinamine] | ≤ 250 | ≤ 500 | –
18 | CNc1cc(-c2cccnc2Nc2c(C)ccc3c(Nc4cccc(OC(F)(F)F)c4)ncnc23)ncn1 [Example 343] | ≤ 250 | ≤ 500 | –
19 | CNc1ncc2cc(-c3c(C)ccc4c(Nc5cccc(C(F)(F)F)c5)nccc34)ccc2n1 [Example 24, N-methyl-6-(6-methyl-1-((3-(trifluoromethyl)phenyl)amino)-5-isoquinolinyl)-2-quinazolinamine] | ≤ 250 | ≤ 500 | –
20 | CNc1ncc2cc(-c3c(C)ccc4c(Oc5cccc(C(F)(F)F)c5)nccc34)ccc2n1 [Example 395, N-methyl-6-(6-methyl-1-(3-(trifluoromethyl)phenoxy)isoquinolin-5-yl)quinazolin-2-amine] | ≤ 250 | ≤ 500 | –
21 | CNc1ncc2cc(-c3c(C)ccc4c(Nc5ccc6sc(C)nc6c5)nccc34)ccc2n1 [Example 39, N-methyl-6-(6-methyl-1-((2-methyl-1,3-benzothiazol-5-yl)amino)-5-isoquinolinyl)-2-quinazolinamine] | ≤ 250 | ≤ 500 | –
22 | Cc1ccc2c(Nc3cccc(C(C)C)c3)nccc2c1Nc1ncccc1-c1ccncn1 [Example 12, 6-methyl-N^1-(3-(1-methylethyl)phenyl)-N^5-(3-(4-pyrimidinyl)-2-pyridinyl)-1,5-isoquinolinediamine] | ≤ 250 | ≤ 500 | –
23 | Cc1ccc2c(Nc3ccc(C(C)(C)C)cc3)nccc2c1Nc1ncccc1-c1ccncn1 [Example 16, N^1-(4-(1,1-dimethylethyl)phenyl)-6-methyl-N^5-(3-(4-pyrimidinyl)-2-pyridinyl)-1,5-isoquinolinediamine] | ≤ 250 | ≤ 500 | –
24 | CNc1ncc2cc(-c3c(C)ccc4c(NC5CCC(C(C)(C)C)CC5)ncnc34)ccc2n1 (stereo not shown) [Example 57, N^4′-(4-(1,1-dimethylethyl)cyclohexyl)-N^2,7′-dimethyl-6,8′-biquinazoline-2,4′-diamine] | ≤ 250 | ≤ 500 | ≤ 1000
25 | Cc1ccc2c(Nc3cccc(C(C)(C)C)c3)nccc2c1Nc1ncccc1-c1ccncn1 [Example 10, N^1-(3-(1,1-dimethylethyl)phenyl)-6-methyl-N^5-(3-(4-pyrimidinyl)-2-pyridinyl)-1,5-isoquinolinediamine] | ≤ 250 | ≤ 500 | –
26 | Cc1ccc2c(Nc3ccccc3)nccc2c1Nc1ncccc1-c1ccncn1 [Example 9, 6-methyl-N^1-phenyl-N^5-(3-(4-pyrimidinyl)-2-pyridinyl)-1,5-isoquinolinediamine] | ≤ 250 | ≤ 500 | –
27 | CNc1cc(-c2cccnc2Nc2c(C)ccc3c(Nc4cccc(OC(F)(F)F)c4)nccc23)ncn1 [Example 68, 6-methyl-N^5-(3-(6-(methylamino)-4-pyrimidinyl)-2-pyridinyl)-N^1-(3-((trifluoromethyl)oxy)phenyl)-1,5-isoquinolinediamine] | ≤ 250 | ≤ 500 | –
28 | Cc1ccc2c(Nc3cccc(OC(C)C)c3)nccc2c1Nc1ncccc1-c1ccncn1 [Example 13, 6-methyl-N^1-(3-((1-methylethyl)oxy)phenyl)-N^5-(3-(4-pyrimidinyl)-2-pyridinyl)-1,5-isoquinolinediamine] | ≤ 250 | ≤ 500 | –
29 | COc1cc(Nc2nccc3c(Nc4ncccc4-c4ccncn4)cccc23)cc(C(F)(F)F)c1 [Example 8, N^1-(3-(methyloxy)-5-(trifluoromethyl)phenyl)-N^5-(3-(4-pyrimidinyl)-2-pyridinyl)-1,5-isoquinolinediamine] | ≤ 250 | ≤ 500 | –
